Here are results for 32 compounds from US20140163012A1, “PYRIDO-/AZEPINO-BENZOFURAN AND PYRIDO-/AZEPINO-BENZOTHIOPHENE MCH-1 ANTAGONISTS, METHODS OF MAKING, AND USE THEREOF” (Albany Molecular Research, Inc., priority 2012, published 2014).

Counter-ions that a name gives are not always drawn.

Tested on in the first series: not given
Assay: not given
Conditions: not given
In general, melting point refers to the temperature, or range, at which the solid turns liquid. With `Cl.O=c1cc(OCc2ccc(F)cn2)cnn1-c1ccc2c3c(oc2c1)CCNC3` [Example 50, 5-((5-Fluoropyridin-2-yl)methoxy)-2-(1,2,3,4-tetrahydrobenzofuro[3,2-c]pyridin-7-yl)pyridazin-3(2H)-one hydrochloride], the melting point lay within 268 to 269 °C.

As to `Cc1ccc(COc2ccn(-c3ccc4c5c(oc4c3)CCNC5)c(=O)c2)cn1.Cl` [Example 51, 4-((6-Methylpyridin-3-yl)methoxy)-1-(1,2,3,4-tetrahydrobenzofuro[3,2-c]pyridin-7-yl)pyridin-2(1H)-one hydrochloride], the melting point is 227 to 233 °C.

In turn, `Cl.O=c1cc(OCc2ccc(C(F)(F)F)nc2)ccn1-c1ccc2c3c(oc2c1)CCNC3` [Example 52, 1-(1,2,3,4-Tetrahydrobenzofuro[3,2-c]pyridin-7-yl)-4-((6-(trifluoromethyl)pyridin-3-yl)methoxy)pyridin-2(1H)-one hydrochloride] gave a melting point of 278 to 280 °C.

As to `Cl.O=c1cc(OCc2ccccc2)ccn1-c1ccc2sc3c(c2c1)CCNC3` [Example 65, 4-Benzyloxy-1-(1,2,3,4-tetrahydrobenzo[4,5]thieno[2,3-c]pyridin-6-yl)pyridin-2(1H)-one hydrochloride], the melting point is 170 °C.

With `Cl.O=c1cc(OCc2ccc(F)cn2)ccn1-c1ccc2sc3c(c2c1)CCNC3` [Example 66, 4-((5-Fluoropyridin-2-yl)methoxy)-1-(1,2,3,4-tetrahydrobenzo[4,5]thieno[2,3-c]pyridin-6-yl)pyridin-2(1H)-one hydrochloride], the melting point was 278 to 280 °C.

Turning to `Cl.O=c1cc(OCc2ccccc2)ccn1-c1ccc2sc3c(c2c1)CNCC3` [Example 67, 4-Benzyloxy-1-(1,2,3,4-tetrahydrobenzo[4,5]thieno[3,2-c]pyridin-8-yl)pyridin-2(1H)-one hydrochloride], the melting point lay in the range of 245 to 247 °C.

Another series deals with human MCH-1 receptor (Homo sapiens, UniProt Q99705). Description: Binding assay for human melanin-concentrating hormone (MCH-1) receptor, radioligand displacement on CHO-K1 cell membranes.
human MCH-1 receptor, sequence (Q99705 whole entry): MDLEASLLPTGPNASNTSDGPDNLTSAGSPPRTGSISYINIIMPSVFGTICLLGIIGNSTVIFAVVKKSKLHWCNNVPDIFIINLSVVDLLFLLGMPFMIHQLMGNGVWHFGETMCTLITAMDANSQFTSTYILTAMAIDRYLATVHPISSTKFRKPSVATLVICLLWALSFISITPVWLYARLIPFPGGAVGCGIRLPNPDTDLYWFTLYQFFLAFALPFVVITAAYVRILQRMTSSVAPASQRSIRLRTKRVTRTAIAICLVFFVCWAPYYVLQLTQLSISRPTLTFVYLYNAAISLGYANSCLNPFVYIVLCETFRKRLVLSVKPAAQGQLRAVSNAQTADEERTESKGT
Conditions: not given
On the technique in general: In a radioligand displacement assay an active substance lowers the binding of a labelled ligand.
Broadly, the Ki is a dissociation constant, usually derived from enzyme kinetics or from competition with a known ligand. High values mean weaker binding, low ones tighter binding. Compound `Cl.O=c1cc(OCc2ccc(F)cn2)cnn1-c1ccc2c3c(oc2c1)CCNC3` [Example 50, 5-((5-Fluoropyridin-2-yl)methoxy)-2-(1,2,3,4-tetrahydrobenzofuro[3,2-c]pyridin-7-yl)pyridazin-3(2H)-one hydrochloride] had a Ki of 36 nM.

As to `Cc1ccc(COc2ccn(-c3ccc4c5c(oc4c3)CCNC5)c(=O)c2)cn1.Cl` [Example 51, 4-((6-Methylpyridin-3-yl)methoxy)-1-(1,2,3,4-tetrahydrobenzofuro[3,2-c]pyridin-7-yl)pyridin-2(1H)-one hydrochloride], affinity was put at a Ki of 145 nM.

The compound `Cl.O=c1cc(OCc2ccc(C(F)(F)F)nc2)ccn1-c1ccc2c3c(oc2c1)CCNC3` [Example 52, 1-(1,2,3,4-Tetrahydrobenzofuro[3,2-c]pyridin-7-yl)-4-((6-(trifluoromethyl)pyridin-3-yl)methoxy)pyridin-2(1H)-one hydrochloride] displayed a Ki of 73 nM.

Compound `Cl.O=c1cc(OCc2ccccc2)ccn1-c1ccc2sc3c(c2c1)CCNC3` [Example 65, 4-Benzyloxy-1-(1,2,3,4-tetrahydrobenzo[4,5]thieno[2,3-c]pyridin-6-yl)pyridin-2(1H)-one hydrochloride] had a Ki of 360 nM. This Ki is about 4.9-fold higher than that of the compound before.

`CN1CCCc2oc3cc(N4CCN(CCc5ccc(Cl)cc5)CC4=O)ccc3c2C1` [Example 93, 4-(4-Chlorophenethyl)-1-(2-methyl-2,3,4,5-tetrahydro-1H-benzofuro[3,2-c]azepin-8-yl)piperazin-2-one hydrochloride] displayed a Ki of 69 nM.

In turn, `CN1CCCc2oc3cc(N4CCN(CCc5ccc(Cl)cn5)CC4=O)ccc3c2C1` [Example 94, 4-(2-(5-Chloropyridin-2-yl)ethyl)-1-(2-methyl-2,3,4,5-tetrahydro-1H-benzofuro[3,2-c]azepin-8-yl)piperazin-2-one hydrochloride] yielded a Ki of 103 nM. This Ki and that of the compound before are within 1.5-fold of each other.

`CC(C)N1CCCc2oc3cc(N4CCN(CCc5ccc(Cl)cc5)CC4=O)ccc3c2C1` [Example 96, 4-(4-Chlorophenethyl)-1-(2-isopropyl-2,3,4,5-tetrahydro-1H-benzofuro[3,2-c]azepin-8-yl)piperazin-2-one hydrochloride] came in with a Ki of 150 nM.

Compound `O=C1CN(CCc2ccc(Cl)cn2)CCN1c1ccc2c3c(oc2c1)CCNCC3` [Example 98, 4-(2-(5-Chloropyridin-2-yl)ethyl)-1-(2,3,4,5-tetrahydro-1H-benzofuro[2,3-d]azepin-8-yl)piperazin-2-one hydrochloride] displayed a Ki of 153 nM.

In turn, `O=C1CN(CCc2ccc(Cl)cc2)CCN1c1ccc2c3c(oc2c1)CCNCC3` [Example 99, 4-(4-Chlorophenethyl)-1-(2,3,4,5-tetrahydro-1H-benzofuro[2,3-d]azepin-8-yl)piperazin-2-one hydrochloride] displayed a Ki of 98 nM.

For `O=c1cc(CCc2ccc(F)cn2)ccn1-c1ccc2c3c(oc2c1)CCCNC3` [Example 100, 4-(2-(5-Fluoropyridin-2-yl)ethyl)-1-(2,3,4,5-tetrahydro-1H-benzofuro[3,2-c]azepin-8-yl)pyridin-2(1H)-one hydrochloride], the Ki was 8.1 nM.

In the case of `O=c1nc(CCc2ccc(Cl)cn2)ccn1-c1ccc2c3c(oc2c1)CCCNC3` [Example 103, 4-(2-(5-Chloropyridin-2-yl)ethyl)-1-(2,3,4,5-tetrahydro-1H-benzofuro[3,2-c]azepin-8-yl)pyrimidin-2(1H)-one hydrochloride], affinity was put at a Ki of 8 nM.

In the case of `O=c1cc(-c2ccc(C(F)(F)F)nn2)ccn1-c1ccc2c3c(oc2c1)CCCNC3` [Example 106, 1-(2,3,4,5-Tetrahydro-1H-benzofuro[3,2-c]azepin-8-yl)-4-(6-(trifluoromethyl)pyridazin-3-yl)pyridin-2(1H)-one hydrochloride], the inhibition constant Ki is 199 nM.

Turning to `O=c1cc(CCc2ccc(Cl)cn2)ccn1-c1ccc2c3c(oc2c1)CCCNC3` [Example 107, 4-(2-(5-Chloropyridin-2-yl)ethyl)-1-(2,3,4,5-tetrahydro-1H-benzofuro[3,2-c]azepin-8-yl)pyridin-2(1H)-one hydrochloride], the Ki turned out to be 4.2 nM.

Compound `O=c1cc(CCc2ccccc2)ccn1-c1ccc2c3c(oc2c1)CCCNC3` [Example 108, 4-Phenethyl-1-(2,3,4,5-tetrahydro-1H-benzofuro[3,2-c]azepin-8-yl)pyridin-2(1H)-one hydrochloride] showed a Ki of 3.2 nM.

For the compound `O=c1cc(OCc2ccc(C(F)(F)F)cn2)ccn1-c1ccc2c3c(oc2c1)CCNC3` [Example 115, 1-(1,2,3,4-Tetrahydrobenzofuro[3,2-c]pyridin-7-yl)-4-((5-(trifluoromethyl)pyridin-2-yl)methoxy)pyridin-2(1H)-one hydrochloride], the affinity corresponds to a Ki of 13 nM.

In turn, `O=c1cc(OCc2ccccc2)ccn1-c1ccc2sc3c(c2c1)CCNCC3` [Example 117, 4-(Benzyloxy)-1-(2,3,4,5-tetrahydro-1H-benzo[4,5]thieno[2,3-d]azepin-9-yl)pyridin-2(1H)-one hydrochloride] gave a Ki of 103 nM.

On to `O=C1CN(CCc2ccc(Cl)cn2)CCN1c1ccc2c3c(sc2c1)CNCC3` [Example 121, 4-(2-(5-Chloropyridin-2-yl)ethyl)-1-(1,2,3,4-tetrahydrobenzothieno[2,3-c]pyridin-7-yl)piperazin-2-one hydrochloride], for which the Ki turned out to be 44 nM. Against the preceding compound, the Ki is about 2.3-fold lower.

`O=c1cc(OCc2ccccc2)ccn1-c1ccc2c3c(sc2c1)CCCNC3` [Example 122, 4-(Benzyloxy)-1-(2,3,4,5-tetrahydro-1H-benzothieno[3,2-c]azepin-8-yl)pyridin-2(1H)-one hydrochloride] gave a Ki of 3.3 nM.

`O=c1cc(OCc2ccc(Cl)cn2)ccn1-c1ccc2c3c(sc2c1)CCCNC3` [Example 123, 4-((5-Chloropyridin-2-yl)methoxy)-1-(2,3,4,5-tetrahydro-1H-benzothieno[3,2-c]azepin-8-yl)pyridin-2(1H)-one hydrochloride]: affinity was put at a Ki of 2.9 nM.

`O=c1cc(OCc2ccc(F)cn2)ccn1-c1ccc2c3c(sc2c1)CCCNC3` [Example 124, 4-((5-Fluoropyridin-2-yl)methoxy)-1-(2,3,4,5-tetrahydro-1H-benzothieno[3,2-c]azepin-8-yl)pyridin-2(1H)-one hydrochloride] returned an inhibition constant Ki of 3.7 nM.

The compound `O=c1cc(CCc2ccc(Cl)cn2)ccn1-c1ccc2c3c(sc2c1)CNCC3` [Example 125, 4-((5-Chloropyridin-2-yl)ethyl)-1-(1,2,3,4-tetrahydrobenzothieno[2,3-c]pyridin-7-yl)pyridin-2(1H)-one hydrochloride] yielded a Ki of 10 nM.

`O=c1cc(CCc2ccc(F)cn2)ccn1-c1ccc2c3c(sc2c1)CNCC3` [Example 126, 4-((5-Fluoropyridin-2-yl)ethyl)-1-(1,2,3,4-tetrahydrobenzothieno[2,3-c]pyridin-7-yl)pyridin-2(1H)-one hydrochloride] came in with a Ki of 20 nM.

Turning to `O=c1cc(CCc2ccccc2)ccn1-c1ccc2c3c(sc2c1)CNCC3` [Example 127, 4-Phenethyl-1-(1,2,3,4-tetrahydrobenzothieno[2,3-c]pyridin-7-yl)pyridin-2(1H)-one hydrochloride], affinity was put at a Ki of 6.2 nM.

The compound `O=c1cc(OCc2ccccc2)ccn1-c1ccc2c3c(oc2c1)CC1CCC3N1` (centres unmarked) [Example 128, 4-(Benzyloxy)-1-(7,8,9,10-tetrahydro-6H-7,10-epiminocyclohepta[b]benzofuran-3-yl)pyridin-2(1H)-one hydrochloride] showed a Ki of 11 nM.

Regarding `O=c1cc(OCc2ccc(F)cn2)ccn1-c1ccc2c3c(oc2c1)CC1CCC3N1` (centres unmarked) [Example 129, 4-((5-Fluoropyridin-2-yl)methoxy)-1-(7,8,9,10-tetrahydro-6H-7,10-epiminocyclohepta[b]benzofuran-3-yl)pyridin-2(1H)-one hydrochloride], the Ki came out at 14 nM.

Staying with this series, now noted: read-out: MCH1 % inhibition @ 1 uM.
Broadly, the inhibition is the percentage by which the read-out fell short of the control. As for `Cl.O=c1cc(OCc2ccc(F)cn2)ccn1-c1ccc2sc3c(c2c1)CCNC3` [Example 66, 4-((5-Fluoropyridin-2-yl)methoxy)-1-(1,2,3,4-tetrahydrobenzo[4,5]thieno[2,3-c]pyridin-6-yl)pyridin-2(1H)-one hydrochloride], the inhibition at 1 µM amounted to 34%.

With `Cl.O=c1cc(OCc2ccccc2)ccn1-c1ccc2sc3c(c2c1)CNCC3` [Example 67, 4-Benzyloxy-1-(1,2,3,4-tetrahydrobenzo[4,5]thieno[3,2-c]pyridin-8-yl)pyridin-2(1H)-one hydrochloride], the inhibition at 1 µM came out at 31%.

On to `CN1CCCc2oc3cc(N4CCN(CCc5ccc(F)cn5)CC4=O)ccc3c2C1` [Example 95, 4-(2-(5-Fluoropyridin-2-yl)ethyl)-1-(2-methyl-2,3,4,5-tetrahydro-1H-benzofuro[3,2-c]azepin-8-yl)piperazin-2-one hydrochloride], for which the inhibition at 1 µM worked out at 62%.

`CC(C)N1CCCc2oc3cc(N4CCN(CCc5ccc(Cl)cn5)CC4=O)ccc3c2C1` [Example 97, 4-(2-(5-Chloropyridin-2-yl)ethyl)-1-(2-isopropyl-2,3,4,5-tetrahydro-1H-benzofuro[3,2-c]azepin-8-yl)piperazin-2-one hydrochloride]: the inhibition at 1 µM was 66%.

With `O=c1cc(OCc2ccc(F)cn2)ccn1-c1ccc2oc3c(c2c1)CCCNC3` [Example 109, 4-((5-Fluoropyridin-2-yl)methoxy)-1-(2,3,4,5-tetrahydro-1H-benzofuro[2,3-c]azepin-7-yl)pyridin-2(1H)-one hydrochloride], the inhibition at 1 µM worked out at 12%.

`O=c1cc(OCc2ccccc2)ccn1-c1ccc2oc3c(c2c1)CCCNC3` [Example 110, 4-(Benzyloxy)-1-(2,3,4,5-tetrahydro-1H-benzofuro[2,3-c]azepin-7-yl)pyridin-2(1H)-one hydrochloride]: the inhibition at 1 µM was found to be 12%.

`O=c1cc(OCc2ccccc2)ccn1-c1ccc2sc3c(c2c1)CCCNC3` [Example 116, 4-(Benzyloxy)-1-(2,3,4,5-tetrahydro-1H-benzo[4,5]thieno[2,3-c]azepin-7-yl)pyridin-2(1H)-one hydrochloride]: the inhibition at 1 µM turned out to be 37%.
